# Test results as given in patent US12479887B2, “Inhibitors for protein n-terminal methyltransferase and uses thereof” (Purdue Research Foundation, priority 2018, dated 2025).
# Where two headings read alike, the source gives them in different places. Non-standard residues stand in square brackets, D forms with d. Residues, ends and D or L forms follow the SMILES beside them. *: point of attachment. Acetyl(1-naphthyl) = O=C(Cc1cccc2ccccc12)*; dHpg = N[C@@H](C(=O)O)c1ccc(O)cc1; Hpg = N[C@H](C(=O)O)c1ccc(O)cc1; Pra = C#CC[C@H](N)C(=O)O; X1 = O=C(Cc1ccc(O)cc1)*; ClAc = O=C(CCl)*
# Biological target: N-terminal methyltransferase1 (NTMT1) (Homo sapiens (Human), UniProt Q9BV86)
# Sequence (Q9BV86 1-222): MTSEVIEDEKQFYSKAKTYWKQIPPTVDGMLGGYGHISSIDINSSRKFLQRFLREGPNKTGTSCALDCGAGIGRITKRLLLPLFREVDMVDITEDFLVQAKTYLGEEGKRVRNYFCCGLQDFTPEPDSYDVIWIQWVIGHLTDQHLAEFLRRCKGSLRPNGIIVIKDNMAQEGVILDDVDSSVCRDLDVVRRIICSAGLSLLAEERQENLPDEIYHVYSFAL
# Experiment: NTMT1 inhibition IC50, SAH hydrolase-coupled fluorescence assay
# Format: biochemical
# Protocol: The inhibitors ranging in concentration from (2 μL of 0.14 μM-1 mM) and following a three-fold dilution were incubated with 0.2 μM NTMT1 with a reaction mixture which was added in the following order: H2O, 10× Tris-HCl Buffer (2 μL of 250 mM Tris pH 7.4, 100 mM NaCl, and 500 mM KCl), SAH hydrolase (1 μL of 100 μM), SAM (0.2 μL of 10 mM), NTMT1 (1 μL of 4 μM) and ThioGlo1 (0.2 μL of 1.5 mM DMSO solution). After 10 mins of incubation at 37° C., the reaction was initiated with 1 μM of GPKRIA. Fluorescence intensity was monitored using a BMG ClarioStar microplate reader (Ex=380 nm, Em=510 nm) at 37° C. for 15 min. The rates were fit to the log[inhibitor] vs response model using least squares nonlinear regression through GraphPad Prism 7 software. All experiments were performed in triplicate.
# [1] = 0.2 μM NTMT1, 1 μM GPKRIA peptide substrate, 37° C., ThioGlo1 fluorescence
IC50 [nM],IC50 [1] [nM],Structure (SMILES)
400 ± 30,,"N=C(N)NCCC[C@H](NC(=O)[C@H](CCCCN)NC(=O)[C@@H]1CCCN1C(=O)Cc1cccc2ccccc12)C(N)=O [Compound 1, (S)—N—((S)-6-amino-1-(((S)-1-amino-5-guanidino-1-oxopentan-2-yl)amino)-1-oxohexan-2-yl)-1-(2-(naphthalen-1-yl)acetyl)pyrrolidine-2-carboxamide]"
,160 ± 70,"N=C(N)NCCC[C@H](NC(=O)[C@H](CCCCN)NC(=O)[C@@H]1CCCN1C(=O)Cc1cccc2[nH]ccc12)C(N)=O [Compound 4, (S)-1-(2-(1H-indol-4-yl)acetyl)-N—((S)-6-amino-1-(((S)-1-amino-5-guanidino-1-oxopentan-2-yl)amino)-1-oxohexan-2-yl)pyrrolidine-2-carboxamide]"
,> 100000,"NCCCC[C@H](NC(=O)CN(C(=O)Cc1cccc2ccccc12)C1CCCC1)C(N)=O [Compound 10, (S)-6-amino-2-(2-(N-cyclopentyl-2-(naphthalen-1-yl)acetamido)acetamido)hexanamide]"
,> 100000,"NCCCC[C@H](NC(=O)c1cn(CC(=O)Nc2ccccc2)nn1)C(N)=O [Compound 11, (S)—N-(1,6-diamino-1-oxohexan-2-yl)-1-(2-oxo-2-(phenylamino)ethyl)-1H-1,2,3-triazole-4-carboxamide]"
2500,,"N=C(N)NCCC[C@H](NC(=O)[C@H](CCCCN)NC(=O)[C@@H]1CCCN1C(=O)/C=C/c1ccc(O)cc1)C(N)=O [Compound 17, (S)—N—((S)-6-amino-1-(((S)-1-amino-5-guanidino-1-oxopentan-2-yl)amino)-1-oxohexan-2-yl)-1-((E)-3-(4-hydroxyphenyl)acryloyl)pyrrolidine-2-carboxamide]"
,1500,"N=C(N)NCCC[C@H](NC(=O)[C@H](CCCCN)NC(=O)[C@@H]1CCCN1C(=O)Cc1ccc(CO)cc1)C(N)=O [Compound 18, (S)—N—((S)-6-amino-1-(((S)-1-amino-5-guanidino-1-oxopentan-2-yl)amino)-1-oxohexan-2-yl)-1-(2-(4-(hydroxymethyl)phenyl)acetyl)pyrrolidine-2-carboxamide]"
> 100000,,"N=C(N)NCCC[C@H](NC(=O)[C@H](CCCCN)NC(=O)[C@@H]1CCCN1C(=O)[C@H](NC(=O)Cc1ccc(O)cc1)c1ccc(O)cc1)C(N)=O [Compound 21, (S)—N—((S)-6-amino-1-(((S)-1-amino-5-guanidino-1-oxopentan-2-yl)amino)-1-oxohexan-2-yl)-1-((R)-2-(4-hydroxyphenyl)-2-(2-(4-hydroxyphenyl)acetamido)acetyl)pyrrolidine-2-carboxamide] (X1-[dHpg]PKR-NH2)"
> 100000,,"N=C(N)NCCC[C@H](NC(=O)[C@H](CCCCN)NC(=O)[C@@H]1CCCN1C(=O)[C@@H](NC(=O)Cc1ccc(O)cc1)c1ccc(O)cc1)C(N)=O [Compound 22, (S)—N—((S)-6-amino-1-(((S)-1-amino-5-guanidino-1-oxopentan-2-yl)amino)-1-oxohexan-2-yl)-1-((S)-2-(4-hydroxyphenyl)-2-(2-(4-hydroxyphenyl)acetamido)acetyl)pyrrolidine-2-carboxamide] (X1-[Hpg]PKR-NH2)"
> 100000,,"N=C(N)NCCC[C@H](NC(=O)[C@H](CCCCN)NC(=O)[C@@H]1CCCN1C(=O)[C@H](NCCc1ccc(O)cc1)c1ccc(O)cc1)C(N)=O [Compound 23, (S)—N—((S)-6-amino-1-(((S)-1-amino-5-guanidino-1-oxopentan-2-yl)amino)-1-oxohexan-2-yl)-1-((R)-2-((4-hydroxyphenethyl)amino)-2-(4-hydroxyphenyl)acetyl)pyrrolidine-2-carboxamide]"
60,,"CC[C@H](C)[C@H](NC(=O)[C@H](CCCNC(=N)N)NC(=O)[C@H](CCCCN)NC(=O)[C@@H]1CCCN1C(=O)Cc1cccc2ccccc12)C(N)=O [Compound 24, (S)—N—((S)-6-amino-1-(((S)-1-(((2S,3S)-1-amino-3-methyl-1-oxopentan-2-yl)amino)-5-guanidino-1-oxopentan-2-yl)amino)-1-oxohexan-2-yl)-1-(2-(naphthalen-1-yl)acetyl)pyrrolidine-2-carboxamide] ({Acetyl(1-naphthyl)}-PKRI-NH2)"
40,,"N=C(N)NCCC[C@H](NC(=O)[C@H](CCCNC(=N)N)NC(=O)[C@H](CCCCN)NC(=O)[C@@H]1CCCN1C(=O)Cc1cccc2ccccc12)C(N)=O [Compound 25, (S)—N—((S)-6-amino-1-(((S)-1-(((S)-1-amino-5-guanidino-1-oxopentan-2-yl)amino)-5-guanidino-1-oxopentan-2-yl)amino)-1-oxohexan-2-yl)-1-(2-(naphthalen-1-yl)acetyl)pyrrolidine-2-carboxamide] ({Acetyl(1-naphthyl)}-PKRR-NH2)"
90,,"C#CC[C@H](NC(=O)[C@H](CCCNC(=N)N)NC(=O)[C@H](CCCCN)NC(=O)[C@@H]1CCCN1C(=O)Cc1cccc2ccccc12)C(N)=O [Compound 26, (S)—N—((S)-6-amino-1-(((S)-1-(((S)-1-amino-1-oxopent-4-yn-2-yl)amino)-5-guanidino-1-oxopentan-2-yl)amino)-1-oxohexan-2-yl)-1-(2-(naphthalen-1-yl)acetyl)pyrrolidine-2-carboxamide] ({Acetyl(1-naphthyl)}-PKR[Pra]-NH2)"
,68,"N=C(N)NCCC[C@H](NC(=O)[C@H](CCCNC(=N)N)NC(=O)[C@H](CCCNC(=N)N)NC(=O)[C@H](CCCNC(=N)N)NC(=O)[C@H](CCCNC(=N)N)NC(=O)[C@H](CCCNC(=N)N)NC(=O)[C@H](CCCCN)NC(=O)[C@@H]1CCCN1C(=O)Cc1cccc2ccccc12)C(N)=O [Compound 34, (S)—N-((6S,9S,12S,15S,18S,21S,24S)-1,28-diamino-6-carbamoyl-9,12,15,18,21-pentakis(3-guanidinopropyl)-1-imino-8,11,14,17,20,23-hexaoxo-2,7,10,13,16,19,22-heptaazaoctacosan-24-yl)-1-(2-(naphthalen-1-yl)acetyl)pyrrolidine-2-carboxamide] ({Acetyl(1-naphthyl)}-PKRRRRRR-NH2)"
,5760,"NCCCC[C@H](NC(=O)[C@@H]1CCCN1C(=O)Cc1cccc2ccccc12)C(=O)N[C@@H](CCC(=O)O)C(N)=O [Compound 39, (S)-5-amino-4-((S)-6-amino-2-((S)-1-(2-(naphthalen-1-yl)acetyl)pyrrolidine-2-carboxamido)hexanamido)-5-oxopentanoic acid]"
95 ± 26,,N=C(N)NCCC[C@H](NC(=O)[C@H](CCCCN)NC(=O)[C@@H]1CCCN1C(=O)Cc1cccc2ccccc12)C(=O)N[C@@H](Cc1c[nH]c2ccccc12)C(N)=O [Compound 43] ({Acetyl(1-naphthyl)}-PKRW-NH2)
79 ± 13,,"N=C(N)NCCC[C@H](NC(=O)[C@H](CCCCN)NC(=O)[C@@H]1CCCN1C(=O)Cc1cccc2ccccc12)C(=O)N[C@@H](Cc1ccc(O)cc1)C(N)=O [Compound 44, (S)—N—((S)-6-amino-1-(((S)-1-(((S)-1-amino-3-(4-hydroxyphenyl)-1-oxopropan-2-yl)amino)-5-guanidino-1-oxopentan-2-yl)amino)-1-oxohexan-2-yl)-1-(2-(naphthalen-1-yl)acetyl)pyrrolidine-2-carboxamide] ({Acetyl(1-naphthyl)}-PKRY-NH2)"
> 100000,,"N=C(N)NCCC[C@H](NC(=O)[C@H](CCCCN)NC(=O)[C@@H]1CCCN1C(=O)[C@@H](NCCc1ccc(O)cc1)c1ccc(O)cc1)C(N)=O [Compound 47, (S)—N—((S)-6-amino-1-(((S)-1-amino-5-guanidino-1-oxopentan-2-yl)amino)-1-oxohexan-2-yl)-1-((S)-2-((4-hydroxyphenethyl)amino)-2-(4-hydroxyphenyl)acetyl)pyrrolidine-2-carboxamide]"

Structure (SMILES),IC50 [nM],IC50 [1] [nM]
"N=C(N)NCCC[C@H](NC(=O)[C@H](CCCCN)NC(=O)[C@@H]1CCCN1C(=O)[C@@H]1CCCN1C(=O)CCl)C(=O)O [Compound 12, (2-chloroacetyl)-L-prolyl-L-prolyl-L-lysyl-L-arginine] (ClAc-PPKR-OH)",,16000 ± 5900
"N=C(N)NCCC[C@H](NC(=O)[C@H](CCCNC(=N)N)NC(=O)[C@H](CCCNC(=N)N)NC(=O)[C@H](CCC(N)=O)NC(=O)[C@H](CCCNC(=N)N)NC(=O)[C@H](CCCNC(=N)N)NC(=O)[C@H](CCCCN)NC(=O)[C@H](CCCCN)NC(=O)[C@H](CCCNC(=N)N)NC(=O)CNC(=O)[C@H](CCCNC(=N)N)NC(=O)[C@H](CCCCN)NC(=O)[C@@H]1CCCN1C(=O)Cc1ccc(O)cc1)C(=O)O [Compound 32, (2-(4-hydroxyphenyl)acetyl)-L-prolyl-L-lysyl-L-arginylglycyl-L-arginyl-L-lysyl-L-lysyl-L-arginyl-L-arginyl-L-glutaminyl-L-arginyl-L-arginyl-L-arginine]",,230 ± 30
